Test results taken from patent US8957129B2, “Aqueous coatings and paints incorporating one or more antimicrobial biosurfactants and methods for using same” (priority 2012, dated 2015).
Converted amounts (≈) assume the structure as drawn. Read-outs that look alike come from different tables or passages of the source.

Columns and labels:
Aspergillus niger = experiment: MIC determination in broth media, two fold dilution, microtiter plates; format: cell-based
Candida albicans = experiment: as above; format: cell-based; details: read-out: Minimum Inhibitory Concentration (MIC), alone (QA/QB)
Bacillus cereus = experiment: as above; format: cell-based; details: read-out: Minimum Inhibitory Concentration (MIC), alone (QA/QB)
S. aureus = experiment: as above; format: cell-based; details: Staphylococcus aureus, read-out: Minimum Inhibitory Concentration (MIC), alone (QA/QB)
E. coli = experiment: as above; format: cell-based; details: Escherichia coli, read-out: Minimum Inhibitory Concentration (MIC), alone (QA/QB), E. coli, substance alone
P. aeruginosa = experiment: as above; format: cell-based, Pseudomonas aeruginosa; details: for MIC: Pseudomonas aeruginosa
B. cepacia = experiment: as above; format: cell-based, Burkhlderia cepacia; details: for MIC: Burkholderia cepacia, read-out: Minimum Inhibitory Concentration (MIC), alone (QA/QB)
bacteria = experiment: Challenge test of combinations of Rhamnolipids with Isothiazolinones in flat paint; format: cell-based; details: levels: RL 250 ppm, CMIT/MIT 5 ppm, MIT 25 ppm, BIT 50 ppm
Method: (§1) A second batch of flat paint formulation was prepared without any surfactants. Then Rhamnolipids (RL) were post-added to this formulation. The formulation was then subjected to an initial screen challenge test using 250 to 2000 ppm RL with mixed populations of E. coli and Pseudomonas aeruginosa.
(§2) Using the same paints, a biocide at lower use level was combined with Rhamnolipid (RL) at a minimum use of 250 ppm.

fungi = experiment: as above; format: cell-based; details: levels: RL 250 ppm, CMIT/MIT 5 ppm, MIT 25 ppm, BIT 50 ppm
Method: as §1, §2

[1] = B. cepacia, substance alone, broth

## Cn1sccc1=O [MIT, Methyl Isothiazolinone]
Aspergillus niger; read-out: Minimum Inhibitory Concentration (MIC), alone (QA/QB), Aspergillus niger, substance alone
  MIC: > 100 µg/mL
Aspergillus niger; substance alone
  Minimum Inhibitory Concentration (MIC), alone (QA/QB): 100 ppm
Candida albicans
  MIC: 100 µg/mL (≈ 868 µM)
Bacillus cereus
  MIC: 25 µg/mL (≈ 217 µM)
S. aureus
  MIC: 25 µg/mL (≈ 217 µM)
E. coli
  MIC: ~25 µg/mL (≈ 217 µM)
P. aeruginosa; P. aeruginosa, substance alone
  Minimum Inhibitory Concentration (MIC), alone (QA/QB): 25 ppm
P. aeruginosa; read-out: Minimum Inhibitory Concentration (MIC), alone (QA/QB), P. aeruginosa, substance alone
  MIC: 12.5 µg/mL (≈ 109 µM)
B. cepacia
  MIC: 25 µg/mL (≈ 217 µM)
bacteria
  Day 1 Bacteria growth: −
  Day 2 Bacteria growth: −
  Day 5 Bacteria growth: −
fungi
  Day 1 Fungi growth: +
  Day 2 Fungi growth: +
  Day 5 Fungi growth: −

## O=c1[nH]sc2ccccc12 [BIT, Benz Isothiazolinone]
Aspergillus niger; substance alone, read-out: Minimum Inhibitory Concentration (MIC), alone (QA/QB)
  MIC: 50 µg/mL (≈ 331 µM)
Candida albicans; substance alone, broth
  MIC: 25 µg/mL (≈ 165 µM)
Bacillus cereus; substance alone, broth
  MIC: 25 µg/mL (≈ 165 µM)
S. aureus; S. aureus, substance alone, broth
  MIC: 25 µg/mL (≈ 165 µM)
P. aeruginosa; P. aeruginosa, substance alone, read-out: Minimum Inhibitory Concentration (MIC), alone (QA/QB)
  MIC: 25 µg/mL (≈ 165 µM)
B. cepacia; [1]
  Minimum Inhibitory Concentration (MIC), alone (QA/QB): 25 ppm
  MIC: 50 µg/mL (≈ 331 µM)
bacteria
  Day 1 Bacteria growth: −
  Day 2 Bacteria growth: −
  Day 5 Bacteria growth: −
fungi
  Day 1 Fungi growth: +
  Day 2 Fungi growth: +
  Day 5 Fungi growth: +
